From patent publication US3945994A, “Novel acid compounds” (Gist-Brocades N.V., priority 1973, dated 1976)
Values after ≈ are worked out from the molar mass of the structure shown.

What was measured:
Assay type in all cases: cell-based
[1] = tested on: Bacillus subtilis ATCC 6633; settings: ATCC6633, agar serial dilution, 24 hours at 37°C
[2] = tested on: Staphylococcus aureus A 321; settings: A321, agar serial dilution, 24 hours at 37°C
[3] = tested on: Staphylococcus aureus A 355'; settings: agar serial dilution, 24 hours at 37°C
[4] = tested on: Staphylococcus aureus A 2000; settings: A2000, agar serial dilution, 24 hours at 37°C
[5] = tested on: Streptococcus haemolyticus A 266; settings: A266, agar serial dilution, 24 hours at 37°C
[6] = tested on: Streptococcus faecalis L 80; settings: Enterococcus faecalis, L80; agar serial dilution, 24 hours at 37°C
[7] = tested on: Pasteurella multocida A 723; settings: A723, agar serial dilution, 24 hours at 37°C
[8] = tested on: Klebsiella pneumoniae A 809; settings: A809, agar serial dilution, 24 hours at 37°C
[9] = tested on: Salmonella typhimurium R 127; settings: Salmonella enterica, agar serial dilution, 24 hours at 37°C
Escherichia coli U 20 = settings: U20, agar serial dilution, 24 hours at 37°C
[10] = tested on: Pseudomonas aeruginosa H 10; settings: H10, agar serial dilution, 24 hours at 37°C
[11] = tested on: Pseudomonas aeruginosa 2396; settings: agar serial dilution, 24 hours at 37°C
[12] = tested on: Pseudomonas aeruginosa Wyeth A 1058; settings: WYETHA1058, agar serial dilution, 24 hours at 37°C
Proteus rettgeri A 821 = settings: Providencia rettgeri, A821; agar serial dilution, 24 hours at 37°C
Proteus mirabilis A 1200 = settings: A1200, agar serial dilution, 24 hours at 37°C
Proteus morganii 2241 = settings: Morganella morganii, agar serial dilution, 24 hours at 37°C
[13] = tested on: Staphylococcus aureus A 2001; settings: A2001, agar serial dilution, 24 hours at 37°C
[14] = tested on: Diplococcus pneumoniae L 54; settings: Streptococcus pneumoniae, L54; agar serial dilution, 24 hours at 37°C
Salmonella dublin P 43 = settings: Salmonella enterica, P43; agar serial dilution, 24 hours at 37°C
Proteus mirabilis H 3 = settings: H3, agar serial dilution, 24 hours at 37°C

Row | SMILES | MIC [1] [mg/L] | MIC [2] [mg/L] | MIC [3] [mg/L] | MIC [4] [mg/L] | MIC [6] [mg/L] | MIC [7] [mg/L] | MIC [8] [mg/L] | MIC [9] [mg/L] | MIC (Escherichia coli U 20) [mg/L] | MIC [10] [mg/L] | MIC [11] [mg/L] | MIC [12] [mg/L] | MIC (Proteus rettgeri A 821) [mg/L] | MIC (Proteus mirabilis A 1200) [mg/L] | MIC (Proteus morganii 2241) [mg/L] | MIC [13] [mg/L] | MIC [14] [mg/L] | MIC (Salmonella dublin P 43) [mg/L] | MIC (Proteus mirabilis H 3) [mg/L] | MIC [5] [mg/L]
1 | CC(C)NS(=O)(=O)NC(=O)N[C@@H](C(=O)N[C@@H]1C(=O)N2[C@@H]1SC(C)(C)[C@@H]2C(=O)O)c1ccccc1 [IX, D-6-[α-{3-(isopropylaminosulfonyl)-ureido}-benzylcarbonamido]-penicillanic acid] | 1.5 (≈ 2.92 µM) | 1.5 (≈ 2.92 µM) | 25 (≈ 48.7 µM) | 25 (≈ 48.7 µM) | 25 (≈ 48.7 µM) | 0.5 (≈ 0.974 µM) | 100 (≈ 195 µM) | 50 (≈ 97.4 µM) | 25 (≈ 48.7 µM) | > 100 | > 100 | > 100 | 0.75 (≈ 1.46 µM) | 6 (≈ 11.7 µM) | 100 (≈ 195 µM) | – | – | – | – | 0.75 (≈ 1.46 µM)
2 | CC(C)N(C(C)C)S(=O)(=O)NC(=O)N[C@@H](C(=O)N[C@@H]1C(=O)N2[C@@H]1SC(C)(C)[C@@H]2C(=O)O)c1ccccc1 [VIII, D-6-[α-{3-(diisopropylaminosulfonyl)-ureido}-benzylcarbonamido]-penicillanic acid] | 1 (≈ 1.8 µM) | 1 (≈ 1.8 µM) | – | – | 6 (≈ 10.8 µM) | 6 (≈ 10.8 µM) | 25 (≈ 45 µM) | 100 (≈ 180 µM) | 25 (≈ 45 µM) | 100 (≈ 180 µM) | 50 (≈ 90 µM) | 50 (≈ 90 µM) | 25 (≈ 45 µM) | 50 (≈ 90 µM) | 100 (≈ 180 µM) | 6 (≈ 10.8 µM) | 1 (≈ 1.8 µM) | 25 (≈ 45 µM) | 100 (≈ 180 µM) | 0.25 (≈ 0.45 µM)

Now from value to molecule, other results behind:

Row | MIC [1] [mg/L] | MIC [2] [mg/L] | MIC [3] [mg/L] | MIC [4] [mg/L] | MIC [6] [mg/L] | MIC [7] [mg/L] | MIC [8] [mg/L] | MIC [9] [mg/L] | MIC (Escherichia coli U 20) [mg/L] | MIC [10] [mg/L] | MIC [11] [mg/L] | MIC [12] [mg/L] | MIC (Proteus rettgeri A 821) [mg/L] | MIC (Proteus mirabilis A 1200) [mg/L] | MIC (Proteus morganii 2241) [mg/L] | MIC [13] [mg/L] | MIC [14] [mg/L] | MIC (Salmonella dublin P 43) [mg/L] | MIC (Proteus mirabilis H 3) [mg/L] | SMILES | MIC [5] [mg/L]
3 | 0.25 (≈ 0.499 µM) | 1.5 (≈ 3 µM) | 50 (≈ 99.9 µM) | 12.5 (≈ 25 µM) | 25 (≈ 49.9 µM) | > 100 | > 100 | 25 (≈ 49.9 µM) | 12.5 (≈ 25 µM) | 100 (≈ 200 µM) | 25 (≈ 49.9 µM) | 25 (≈ 49.9 µM) | 1.5 (≈ 3 µM) | 1.5 (≈ 3 µM) | > 100 | 6 (≈ 12 µM) | 6 (≈ 12 µM) | 6 (≈ 12 µM) | 12.5 (≈ 25 µM) | CCOS(=O)(=O)NC(=O)N[C@@H](C(=O)N[C@@H]1C(=O)N2[C@@H]1SC(C)(C)[C@@H]2C(=O)O)c1ccccc1 [VI, D-6-[α-{3-(ethoxysulfonyl)-ureido}-benzylcarbonamido]-penicillanic acid] | 0.25 (≈ 0.499 µM)
4 | 1 (≈ 1.83 µM) | 1 (≈ 1.83 µM) | 25 (≈ 45.7 µM) | 12.5 (≈ 22.8 µM) | 25 (≈ 45.7 µM) | 25 (≈ 45.7 µM) | 25 (≈ 45.7 µM) | 25 (≈ 45.7 µM) | 12.5 (≈ 22.8 µM) | 50 (≈ 91.3 µM) | 25 (≈ 45.7 µM) | 50 (≈ 91.3 µM) | 1.5 (≈ 2.74 µM) | 3 (≈ 5.48 µM) | 25 (≈ 45.7 µM) | 3 (≈ 5.48 µM) | 1 (≈ 1.83 µM) | 12.5 (≈ 22.8 µM) | 3 (≈ 5.48 µM) | CC1(C)S[C@@H]2[C@H](NC(=O)[C@H](NC(=O)NS(=O)(=O)Nc3ccccc3)c3ccccc3)C(=O)N2[C@H]1C(=O)O [VII, D-6-[α-{3-(phenylaminosulfonyl)-ureido}-benzylcarbonamido]-penicillanic acid] | 1 (≈ 1.83 µM)
5 | 1 (≈ 1.79 µM) | 3 (≈ 5.38 µM) | 25 (≈ 44.8 µM) | 12.5 (≈ 22.4 µM) | 25 (≈ 44.8 µM) | 0.25 (≈ 0.448 µM) | 100 (≈ 179 µM) | 50 (≈ 89.7 µM) | 25 (≈ 44.8 µM) | > 100 | 100 (≈ 179 µM) | 25 (≈ 44.8 µM) | < 0.75 | 3 (≈ 5.38 µM) | 50 (≈ 89.7 µM) | 12.5 (≈ 22.4 µM) | 1.5 (≈ 2.69 µM) | 25 (≈ 44.8 µM) | 1.5 (≈ 2.69 µM) | CCOC(=O)CNS(=O)(=O)NC(=O)N[C@@H](C(=O)N[C@@H]1C(=O)N2[C@@H]1SC(C)(C)[C@@H]2C(=O)O)c1ccccc1 [X, D-6-[α-{3-(ethoxycarbonylmethylaminosulfonyl)-ureido}-benzylcarbonamido]-penicillanic acid] | 0.25 (≈ 0.448 µM)
